In PMC6938011, “Antiplasmodial profile of selected compounds from Malaria Box: in vitro evaluation, speed of action and drug combination studies” (Malaria Journal, 2019):
“Also recorded” adds a separate entry of the source. Where two headings read alike, the source gives them in different places.

What was measured:
[1] = test system: Hepatocarcinoma cells (HepG2); assay: Cytotoxicity evaluation, MTT assay; assay type: cell-based, human; details: HepG2, 72 h, read-out: IC50^HepG2, MTT Average (confidence interval-95%)
Description: (§1) Hepatocarcinoma cells (HepG2) were cultivated in RPMI medium supplemented with 10% (v/v) fetal bovine serum and 0.2% (v/v) penicillin/streptomycin. The antibiotics were added to the medium to eliminate the potential interference of microbial contamination. Cells were cultivated at 37 °C and 5% CO2; the supplemented medium was changed every 2 days.
(§2) For the experimental procedures, cells were trypsinized and transferred to a 96-well plate at 30,000 cells per well and incubated at 37 °C overnight for cell adhesion. Then, serial dilutions of the inhibitor candidates were added to the plate. Cells without any compounds were used as positive growth controls. The plate was incubated at 37 °C and 5% CO2 for 72 h. After incubation, the highest compound concentration to be considered (highest concentration without precipitation) was observed by microscopy. Cytotoxicity was evaluated by two different methods. The first is a colorimetric assay based on metabolic cell activity in the presence of 3-(4,5-dimethylthiazol-2-yl)-2,5-diphenyltetrazolium bromide (MTT). Briefly, mitochondrial enzymes can convert the MTT dye into the purple insoluble compound formazan. To each well, 20 µL MTT at 5 mg/mL was added, followed by incubation at 37 °C for 3 to 5 h. After incubation, the supernatant was removed, and formazan crystals were solubilized in 100 µL DMSO. The absorbance, which is proportional to the number of viable cells, was determined using a SpectraMAX Plus 384 plate reader (Molecular Devices Corp., Sunnyvale, CA) (λ = 570 nm). The second method is based on the uptake of neutral red, a dye that is retained inside the lysosomes of viable cells. To each well, after removal of culture media, 200 µL neutral red medium 40 µg/mL was added, followed by incubation at 37 °C for 3 to 5 h. After incubation, supernatant was dispensed, and 200 µL 0.5% (v/v) formaldehyde in 1% (m/v) CaCl2 was added to remove excess of the dye for 5 min. Supernatant was dispensed, and 100 µL alcohol-acid solution (50% (v/v) ethanol, 1% (v/v) glacial acetic acid) was added, and the plate was stirred until a homogeneous solution was formed. The absorbance was determined using a SpectraMAX Plus 384 plate reader (Molecular Devices Corp., Sunnyvale, CA) (λ = 540 nm). For both methods, the half maximal inhibitory concentration (IC50^HepG2) was determined by non-linear regression analysis of the resulting concentration-response curve using the software Origin 2016 (OriginLab Corporation).

P. falciparum [2] = details: cited from earlier work
[3] = test system: Hepatocarcinoma cells (HepG2); assay: Cytotoxicity evaluation, neutral red assay; assay type: cell-based, human; details: HepG2, 72 h, read-out: IC50^HepG2, NR Average (confidence interval-95%)
Description: as §1, §2

P. falciparum 3D7 strain [4] = assay: SYBR Green I inhibition assay for the asexual stages of P. falciparum; assay type: cell-based, Plasmodium falciparum; details: 72 h, read-out: IC50^Pf Average (confidence interval-95%)
Description: The P. falciparum 3D7 strain was kept in culture in a humidified incubator at 37 °C in RPMI-1640 medium with 25 mM NaHCO3, 25 mM HEPES (pH 7.4), 11 mM D-glucose, 3.67 mM hypoxanthine and 25 µg/mL gentamicin, supplemented with 0.5% (m/v) AlbuMAX II. The culture medium was changed daily, and the parasitaemia was maintained below 10% with 2.5% haematocrit in human erythrocytes.
The parasites were synchronized through sterile 5% (m/v) D-sorbitol treatment over 10 min at 37 °C for the enrichment of ring-stage parasites. The cultures were pelleted by centrifugation at 600×g over 5 min. The parasitaemia was determined by microscope analysis of thin blood smears stained with Giemsa 10% (v/v) after methanol fixation. The initial parasitaemia was calculated from 1000 red blood cells (RBCs), and cultures were diluted to 0.5% parasitaemia and 2% haematocrit by adding the appropriate volumes of erythrocytes and medium. Parasite aliquots of 180 µL were distributed into 96-well plates previously prepared with 20 µL aliquots of a tenfold concentrated compound. Negative and positive control wells corresponding to non-parasitized erythrocytes and parasite cultures in the absence of compounds were set in parallel. The DMSO concentration was maintained below 0.05% (v/v). The plates were incubated for 72 h at 37 °C in a humidified incubator with a gas mixture of 90% N2, 5% O2 and 5% CO2. After incubation, the culture medium was removed, and the cells were resuspended in 100 µL PBS buffer (116 mM NaCl, 10 mM Na2HPO4, 3 mM KH2PO4) and lysed with 100 µL lysis buffer (20 mM Tris base, 5 mM EDTA, 0.0008% (v/v) Triton X-100, 0.008% (m/v) saponin, pH 8.0) containing 0.002% (v/v) SYBR Green I. Plates were incubated at room temperature for 30 min, and the fluorescence corresponding to the parasitic density was determined using a SpectraMAX Gemini EM plate reader (Molecular Devices Corp., Sunnyvale, CA) (excitation at 485 nm, emission at 535 nm). The half maximal inhibitory concentration (IC50^Pf) was determined by non-linear regression analysis of the resulting concentration-response curve using the software Origin 2016 (OriginLab Corporation).

P. falciparum 3D7 strain [5] = test system: P. falciparum 3D7 strain; parameters: method as in PMID 23798988; details: reported potency of Malaria Box compounds ref 13, read-out: Reported IC50^Pf; cited from earlier work
P. falciparum [6] = assay: Combination assays, isobologram analysis (FIC50 pairs); assay type: cell-based, Plasmodium falciparum; details: for Isobologram data, Additive: fraction of FIC50 pairs / Isobologram data, Additive: number of FIC50 pairs / Isobologram data, Antagonistic: number of FIC50 pairs / Isobologram data, Synergic: number of FIC50 pairs / Isobologram data, Antagonistic: fraction of FIC50 pairs: combination with artesunate; for Combination profile with artesunate: isobologram, IC50 equivalent ratios 1:4, 2:3, 1:1, 3:2, 4:1
Description: Combinations of anti-malarial candidates with artesunate, an artemisinin derivative, were tested in fixed molar ratios based on the individual IC50 values that were previously determined by the SYBR Green I assay. Traditionally, a line (isobole) of additivity is used to distinguish between additive, synergic, and antagonistic interaction profiles. […] Thus, a systematic consideration of additivity ranges was included in the isobologram analysis, as previously described by Grabovsky and Tallarida. Concentration-response curves of individual compounds were used in the calculation of each pair’s additivity range (area within the upper and lower limits in Figs. 4 and 5). Fractional inhibitory concentration (FIC50) pairs plotted as points inside the additivity range indicate the expected sum of each compound effect, while points above and below the range indicate antagonistic and synergic interactions, respectively. The selected inhibitors were combined with artesunate in the IC50 equivalent ratios of 1:4, 2:3, 1:1, 3:2 and 4:1 for the construction of the isobolograms.

[7] = parameters: method as in PMID 27467575; details: previous pharmacokinetics studies ref 30; cited from earlier work
[8] = parameters: method as in PMID 27467575; details: previous pharmacokinetics studies ref 30; cited from earlier work; remark: listed apart in the source
[9] = test system: asexual intraerythrocytic stages of P. falciparum; assay: Speed of action studies (microscopy of thin blood smears); assay type: cell-based, Plasmodium falciparum; details: ring-stage parasites; for Parasite morphology during incubation: compound at tenfold the IC50, microscopy up to 36 h; for Speed of action: compound at tenfold the IC50, observed 0-36 h
Description: Parasites in thin blood smears were observed by microscopy after 0, 8, 16, 24 and 36 h of incubation.

P. berghei NK65 strain = assay: In vivo suppressive parasite growth test against Plasmodium berghei; parameters: species or system Swiss outbred mice; details: 50 mg/kg oral gavage daily for 3 days, P. berghei-infected mice
Description: A suppressive parasite growth test was performed in mice infected with P. berghei NK65 strain (originally received from the New York University Medical School), as described previously, with some modifications. Briefly, adult Swiss outbred mice (20 ± 2 g weight) were intraperitoneally inoculated with 1 × 10^5 red blood cells infected with P. berghei. The infected mice were maintained together for at least 2 h and then randomized into groups of 5 animals per cage, which were subsequently administered 50 mg/kg of each compound diluted in 3% (v/v) DMSO by oral gavage daily for 3 days. Two control groups were used in parallel: one was treated with CQ (20 mg/kg) and the other was treated with the vehicle. Blood smears from mouse tails were prepared on days 5 and 7 post-infection and then fixed with methanol, stained with Giemsa 10% (v/v), and examined under the microscope.

[10] = Solubility in the cytotoxicity assay conditions; assay type: physicochemical; details: HepG2 cytotoxicity assay conditions
Description: For the experimental procedures, cells were trypsinized and transferred to a 96-well plate at 30,000 cells per well and incubated at 37 °C overnight for cell adhesion. Then, serial dilutions of the inhibitor candidates were added to the plate. Cells without any compounds were used as positive growth controls. The plate was incubated at 37 °C and 5% CO2 for 72 h. After incubation, the highest compound concentration to be considered (highest concentration without precipitation) was observed by microscopy. Cytotoxicity was evaluated by two different methods. The first is a colorimetric assay based on metabolic cell activity in the presence of 3-(4,5-dimethylthiazol-2-yl)-2,5-diphenyltetrazolium bromide (MTT). Briefly, mitochondrial enzymes can convert the MTT dye into the purple insoluble compound formazan. […] The absorbance, which is proportional to the number of viable cells, was determined using a SpectraMAX Plus 384 plate reader (Molecular Devices Corp., Sunnyvale, CA) (λ = 570 nm). […] The absorbance was determined using a SpectraMAX Plus 384 plate reader (Molecular Devices Corp., Sunnyvale, CA) (λ = 540 nm). For both methods, the half maximal inhibitory concentration (IC50^HepG2) was determined by non-linear regression analysis of the resulting concentration-response curve using the software Origin 2016 (OriginLab Corporation).

P. falciparum [11] = assay: Combination assays, isobologram analysis (FIC50 pairs); assay type: cell-based, Plasmodium falciparum
bc1 complex = test system: bc1 complex; parameters: method as in PMID 27467575; details: mitochondrial electron transport chain ref 30; cited from earlier work

SMILES	IC50 (P. falciparum 3D7 strain [5])	Isobologram data, Additive: fraction of FIC50 pairs (P. falciparum [6])	Isobologram data, Additive: number of FIC50 pairs (P. falciparum [6])	Isobologram data, Antagonistic: number of FIC50 pairs (P. falciparum [6])	Isobologram data, Synergic: number of FIC50 pairs (P. falciparum [6])	Combination profile with artesunate (P. falciparum [6])	IC50 [1]	IC50 [3]	IC50 (P. falciparum 3D7 strain [4])	Parasite morphology during incubation [9]	Speed of action [9]	Isobologram data, Antagonistic: fraction of FIC50 pairs (P. falciparum [6])	Combination profile with proguanil (P. falciparum [11])	further results
C[C@H]1[C@H](OC(=O)CCC(=O)O)O[C@@H]2O[C@@]3(C)CC[C@H]4[C@H](C)CC[C@@H]1[C@@]24OO3 [Artesunate, reference compound]	0.008 µM	100%	15	0	0	Additivity								IC50 ([1]; Homo sapiens): 110 µM; Speed of action (literature) (P. falciparum [2]; in vitro ref 34): fast; IC50 ([3]; Homo sapiens): 110 µM; IC50 (P. falciparum 3D7 strain [4]; Plasmodium falciparum): 0.017 µM; Combination profile with artesunate (P. falciparum [6]; listed as artesunate): additive
CCOC(=O)C1=C(C)N=c2sc(=Cc3cc(Cl)ccc3O)c(=O)n2C1c1ccc(OC)cc1 (centres unmarked) [Compound 2]	0.489 µM	92%	12	1	0	additive profile	22 µM	22 µM	0.4 µM	pyknotic nuclei formation	Fast	8%		Plasma protein binding [7]: > 99%; Oral bioavailability [8]: poor; % of reduction of parasitaemia, day 5 after infection (P. berghei NK65 strain): 64%; % of reduction of parasitaemia, day 7 after infection (P. berghei NK65 strain): 33%; Combination profile with artesunate (P. falciparum [6]; listed as 02): Additivity
Cc1cc(NC(=O)c2ccc(-c3ccccc3)cc2)no1 [Compound 10]	0.693 µM	38%	5	8	0	antagonistic; also recorded: Antagonism			0.85 µM	punctual shapes after 16 h	Fast	62%		Solubility in the assay conditions [10]: low solubility
O=C1C(O)=C([C@H]2CC[C@H](c3ccc(Cl)cc3)CC2)C(=O)c2ccccc21 [atovaquone, reference compound]						antagonistic							synergic	Speed of action (literature) (P. falciparum [2]): slow
O=C1c2ccccc2-c2nnc(-c3ccc(Br)cc3)cc21 [Compound 6]	1.07 µM	15%	2	11	0		> 12.5 µM	> 12.5 µM	1.2 µM	young trophozoites were observed after 36 h	slow-acting and Slow	85%	highly synergic	Molecular target (bc1 complex): inhibitor of the mitochondrial electron transport chain targeting the bc1 complex; Combination profile with artesunate (P. falciparum [6]; listed as 06): Antagonism
